Test results from ChEMBL document CHEMBL1151020, “Synthesis of neoeudistomin analogsAs potential filaricides” (1995).

Experiments:
Type in all cases: functional
Details in all cases: route intraperitoneal
[1] = Macrofilaricidal activity (maf) against Acanthocheilonema viteae in Mastomys natalensis at a dose of 30 mg/kg for 5 days by ip administration; Inactive
[2] = Antifilarial (Microfilariae) activity (mf) against Litomosoides carinii in cotton rats at a dose of 30 mg/kg for 5 days by ip administration; Inactive
[3] = Macrofilaricidal activity (maf) against Litomosoides carinii in cotton rats at a dose of 30 mg/kg for 5 days by ip administration; Inactive
Rattus norvegicus [4] = assay: Antifilarial (Microfilariae) activity (mf) against Litomosoides carinii in cotton rats at a dose of 30 mg/kg for 5 days by ip administration
Rattus norvegicus [5] = assay: Antifilarial (Microfilariae) activity (mf) against Acanthocheilonema viteae in Mastomys natalensis at a dose of 350 mg/kg for 5 days by ip administration

Row | SMILES | Activity [1] | Activity [2] | Activity [3] | Activity (Rattus norvegicus [4]) | Activity (Rattus norvegicus [5])
1 | c1coc(-c2nccc3c2[nH]c2ccccc23)c1 | 0 | 0 | – | – | –
2 | c1csc(C2NCCc3c2[nH]c2ccccc32)c1 (stereo unspecified) | – | 0 | 0 | – | –
3 | c1coc(C2NCCc3c2[nH]c2ccccc32)c1 (stereo unspecified) | – | 0 | 0 | – | –
4 | c1ccc2c3c([nH]c2c1)C(c1ccsc1)NCC3 (stereo unspecified) | – | 0 | 0 | – | –
5 | c1c[nH]c(-c2nccc3c2[nH]c2ccccc23)c1 | 0 | – | – | 73 | –
6 | c1csc(-c2nccc3c2[nH]c2ccccc23)c1 | 0 | 0 | 0 | – | –
7 | CCN(CC)C(=O)N1CCN(C)CC1.O=C(O)CC(O)(CC(=O)O)C(=O)O [DIETHYLCARBAMAZINE CITRATE] | 0 | – | 0 | – | >90
